From ChEMBL document CHEMBL1153483, “Synthesis and evaluation of novel substituted 5-hydroxycoumarin and pyranocoumarin derivatives exhibiting significant antiproliferative activity against breast cancer cell lines” (Bioorg Med Chem Lett, 2009) come the findings set out here.

As usually defined, the IC50 is the concentration needed to halve the response being measured.

Assay [1] deals with MCF7. As to the kind of experiment: Antiproliferative activity against human MCF7 cells after 48 hrs by MTT assay. It counts as functional, cell-based. (Formazan colour is commonly taken as a measure of viable cells.)
The test system of assay [2] is MDA-MB-231. As to the kind of experiment: Antiproliferative activity against human MDA-MB-231 cells after 48 hrs by MTT assay. It counts as functional, cell-based.
[3] abbreviates: Homo sapiens, MCF7, 48 h, read-out: IC50.
[4] abbreviates: Homo sapiens, MDA-MB-231, 48 h, read-out: IC50.

For the molecule `CCCc1cc(=O)oc2cc(-c3cccc4c3Sc3ccccc3S4)c3c(c12)OC(C)(C)C=C3`, the IC50 in assay [1] (setting [3]) is over 100 µM; in assay [2] (mda-mb-231), “Not Active”.
Regarding `Cc1cc(=O)oc2cc(I)cc(O)c12`, the figures for the 50% inhibitory concentration (IC50) in assay [1] (setting [3]) and in assay [2] (mda-mb-231) were 18.3 µM and “Not Active”, respectively.
In the case of `CCCc1cc(=O)oc2cc(I)c3c(c12)OC(C)(C)C=C3`, the concentration for half-maximal inhibition (IC50) in assay [1] (setting [3]) was 13.7 µM; in assay [2] (mda-mb-231), “Not Active”.
On to `Cc1cc(=O)oc2cc(I)c3c(c12)OC(C)(C)C=C3`, for which the IC50 was 30.7 µM in assay [1] (setting [3]) and “Not Active” in assay [2] (mda-mb-231).
On to `CC1(C)C=Cc2c(-c3ccc(NS(C)(=O)=O)cc3)cc3oc(=O)cc(-c4ccccc4)c3c2O1`, for which the Activity result in assay [1] and in assay [2] was “Dose-dependent effect” each time. Further, the IC50 is 5.3 µM in assay [1] (setting [3]) and 28.9 µM in assay [2] (setting [4]).
With `CC1(C)C=Cc2c(-c3cc4ccccc4s3)cc3oc(=O)cc(-c4ccccc4)c3c2O1`, the IC50 in assay [1] (setting [3]) was 77.7 µM; in assay [2] (mda-mb-231), “Not Active”.
`O=c1cc(-c2ccccc2)c2c(O)cc(I)cc2o1`: the 50% inhibitory concentration (IC50) is 25 µM in assay [1] (setting [3]) and “Not Active” in assay [2] (mda-mb-231).
Turning to `CC1(C)C=Cc2c(I)cc3oc(=O)cc(-c4ccccc4)c3c2O1`, the 50% inhibitory concentration (IC50) in assay [1] (setting [3]) is 54.3 µM; in assay [2] (mda-mb-231), “Not Active”.
On to `CCCc1cc(=O)oc2cc(-c3ccc(NS(C)(=O)=O)cc3)c3c(c12)OC(C)(C)C=C3`, for which the Activity result in assay [1] and in assay [2] was “Dose-dependent effect” in each case. For the same molecule, the figures for the half-inhibitory concentration (IC50) in assay [1] (setting [3]) and in assay [2] (setting [4]) were 3.3 µM and 27.2 µM, respectively.
On to `Cc1cc(=O)oc2cc(-c3ccc(NS(C)(=O)=O)cc3)c3c(c12)OC(C)(C)C=C3`, for which the Activity entry in assay [1] and in assay [2] was “Dose-dependent effect” in each case. The IC50 came out at 6.5 µM in assay [1] (setting [3]) and 61.2 µM in assay [2] (setting [4]).
As to `CC1(C)C=Cc2c(-c3cccc4c3Sc3ccccc3S4)cc3oc(=O)cc(-c4ccccc4)c3c2O1`, the Activity result in assay [1] and in assay [2] was “Dose-dependent effect” each time. The IC50 in assay [1] (setting [3]) was 7.2 µM; in assay [2] (setting [4]), 33.6 µM.
For the molecule `Cc1cc(=O)oc2cc(-c3cc4ccccc4s3)c3c(c12)OC(C)(C)C=C3`, the 50% inhibitory concentration (IC50) is 25.4 µM in assay [1] (setting [3]) and over 100 µM in assay [2] (setting [4]).
With `CCCc1cc(=O)oc2cc(-c3cccc4c3Sc3ccccc3S4)cc(O)c12`, the Activity result in assay [1] and in assay [2] was “Dose-dependent effect” throughout. In addition, the IC50 in assay [1] (setting [3]) was determined as 14.4 µM; in assay [2] (setting [4]), 7.9 µM.
Regarding `O=c1cc(-c2ccccc2)c2c(O)cc(-c3cccc4c3Sc3ccccc3S4)cc2o1`, the Activity result in assay [1] and in assay [2] was “Dose-dependent effect” in each case. In addition, the IC50 in assay [1] (setting [3]) is 14.2 µM; in assay [2] (setting [4]), 9.3 µM.
`Cc1cc(=O)oc2cc(-c3ccc(NC(=O)CCC(=O)O)cc3)c3c(c12)OC(C)(C)C=C3`: the IC50 result in assay [1] (mcf7) and in assay [2] (mda-mb-231) was “Not Active” each time.
Turning to `CCCc1cc(=O)oc2cc(I)cc(O)c12`, the IC50 in assay [1] (setting [3]) was 26.8 µM; in assay [2] (mda-mb-231), “Not Active”.
As to `O=c1cc(-c2ccccc2)c2c(O)cc(-c3cc4ccccc4s3)cc2o1`, the Activity result in assay [1] and in assay [2] was “Dose-dependent effect” throughout. Besides, the values for the half-maximal inhibitory concentration (IC50) in assay [1] (setting [3]) and in assay [2] (setting [4]) were 7.6 µM and 10.6 µM, respectively.
Consider `CC1(C)C=Cc2c(-c3ccc(NC(=O)CCC(=O)O)cc3)cc3oc(=O)cc(-c4ccccc4)c3c2O1`, for which the IC50 result in assay [1] (mcf7) and in assay [2] (mda-mb-231) was “Not Active” in each case.
Regarding `CCCc1cc(=O)oc2cc(-c3ccc(NC(=O)CCC(=O)O)cc3)c3c(c12)OC(C)(C)C=C3`, the half-maximal inhibitory concentration (IC50) result in assay [1] (mcf7) and in assay [2] (mda-mb-231) was “Not Active” each time.
Regarding `CCCc1cc(=O)oc2cc(-c3cc4ccccc4s3)c3c(c12)OC(C)(C)C=C3`, the IC50 in assay [1] (setting [3]) was 22.8 µM; in assay [2] (mda-mb-231), “Not Active”.
For `CCCc1cc(=O)oc2cc(-c3cc4ccccc4s3)cc(O)c12`, the IC50 in assay [1] (setting [3]) worked out at 22.3 µM; in assay [2] (setting [4]), 50 µM.
